One experiment has as its target T1, DNA polymerase kappa (Homo sapiens, UniProt Q9UBT6).
T1 sequence (Q9UBT6 whole entry): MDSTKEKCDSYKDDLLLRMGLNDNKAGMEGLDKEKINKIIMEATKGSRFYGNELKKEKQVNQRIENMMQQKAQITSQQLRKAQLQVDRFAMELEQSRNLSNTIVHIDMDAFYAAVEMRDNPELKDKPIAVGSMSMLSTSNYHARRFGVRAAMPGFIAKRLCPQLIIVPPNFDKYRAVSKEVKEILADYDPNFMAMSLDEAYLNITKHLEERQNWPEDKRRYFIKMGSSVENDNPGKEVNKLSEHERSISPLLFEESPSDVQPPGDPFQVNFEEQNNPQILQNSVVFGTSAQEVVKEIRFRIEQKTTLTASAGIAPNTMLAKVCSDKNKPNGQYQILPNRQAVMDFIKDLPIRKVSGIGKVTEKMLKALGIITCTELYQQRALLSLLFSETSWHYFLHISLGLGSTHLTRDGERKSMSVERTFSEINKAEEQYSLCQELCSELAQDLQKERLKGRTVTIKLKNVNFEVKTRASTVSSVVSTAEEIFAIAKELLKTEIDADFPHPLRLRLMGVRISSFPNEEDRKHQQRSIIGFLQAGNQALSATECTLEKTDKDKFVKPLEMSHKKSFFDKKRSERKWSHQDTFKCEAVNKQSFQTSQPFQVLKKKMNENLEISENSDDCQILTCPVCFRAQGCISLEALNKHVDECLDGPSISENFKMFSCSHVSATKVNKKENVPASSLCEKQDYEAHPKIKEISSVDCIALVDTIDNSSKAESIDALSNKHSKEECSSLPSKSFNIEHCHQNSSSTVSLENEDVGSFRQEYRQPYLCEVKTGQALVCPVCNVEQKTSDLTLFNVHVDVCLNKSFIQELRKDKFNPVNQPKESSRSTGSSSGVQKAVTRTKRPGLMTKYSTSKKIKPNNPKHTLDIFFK
The experiment in a line: Inhibition of C-terminal His-6-tagged human DNA polymerase kappa expressed in Escherichia coli assessed as inhibition of incorporation of dTTP into poly(dA)/oligo(dT)18 after 60 mins.

For the next experiment, the target named is T2, DNA polymerase eta (Homo sapiens, UniProt Q9Y253).
T2 sequence (Q9Y253 whole entry): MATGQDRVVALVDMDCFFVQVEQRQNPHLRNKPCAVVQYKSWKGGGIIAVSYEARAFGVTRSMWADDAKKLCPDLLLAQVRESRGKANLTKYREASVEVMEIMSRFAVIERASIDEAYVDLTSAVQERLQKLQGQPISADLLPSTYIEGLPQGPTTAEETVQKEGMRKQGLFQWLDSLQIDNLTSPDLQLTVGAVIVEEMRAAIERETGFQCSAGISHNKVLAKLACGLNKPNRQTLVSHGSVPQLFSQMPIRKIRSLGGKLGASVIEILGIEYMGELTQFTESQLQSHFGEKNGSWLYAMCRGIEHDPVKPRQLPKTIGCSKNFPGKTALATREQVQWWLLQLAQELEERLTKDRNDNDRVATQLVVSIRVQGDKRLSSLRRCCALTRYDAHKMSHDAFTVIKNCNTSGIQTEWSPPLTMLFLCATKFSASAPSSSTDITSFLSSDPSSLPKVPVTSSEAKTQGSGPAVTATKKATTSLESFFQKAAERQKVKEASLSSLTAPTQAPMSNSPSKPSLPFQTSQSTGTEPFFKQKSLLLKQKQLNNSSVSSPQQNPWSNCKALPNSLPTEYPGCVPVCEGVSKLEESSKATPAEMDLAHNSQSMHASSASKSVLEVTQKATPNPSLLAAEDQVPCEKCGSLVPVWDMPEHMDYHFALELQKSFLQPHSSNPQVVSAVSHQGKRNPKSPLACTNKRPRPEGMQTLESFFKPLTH
The experiment in a line: Inhibition of C-terminal His-6-tagged human DNA polymerase eta expressed in Escherichia coli assessed as inhibition of incorporation of dTTP into poly(dA)/oligo(dT)18 after 60 mins.

The IC50 is the midpoint of a concentration-inhibition curve.

On to `CCCC[C@@H](O)/C=C(C)/C=C/C=C\C(=O)N1CCCC1=O`, for which the IC50 on DNA polymerase kappa and on DNA polymerase eta was greater than 200 µM each time.

Consider `CC(/C=C/CCC(=O)N1CCCC1=O)=C\C1CCCCO1` (stereo not drawn), for which the IC50 at DNA polymerase kappa and on DNA polymerase eta was greater than 200 µM each time.

As for `CCCC[C@@H](O)/C=C(C)/C=C/C=C/C(=O)N1CCCC1=O` [PECILOCIN], the IC50 at DNA polymerase kappa and at DNA polymerase eta was greater than 200 µM in each case.

As to `CCCCC(=O)/C=C(C)/C=C/CCC(=O)N1CCCC1=O`, the IC50 at DNA polymerase kappa and at DNA polymerase eta was greater than 200 µM in each case.

The values are drawn from ChEMBL document CHEMBL3124747, “Formosusin A, a novel specific inhibitor of mammalian DNA polymerase β from the fungus Paecilomyces formosus” (Bioorg Med Chem, 2014).
